Patent US4036961A (priority 1972, dated 1977)
Structures can show the parent of a compound that is named as a salt.

Assays:
[1] = target: hydroxymethyldihydropteridine pyrophosphokinase (HMPPS) (Escherichia coli, UniProt P26281); test: Inhibition of the enzymes of dihydropteroate biosynthesis (ATP-γ-P32 transfer assay for HMPPS; dihydropteroate-C14 formation for synthetase); format: biochemical; settings: enzymes from E. coli extract; tests (a) HMPPS and (b) synthetase of Example 5; read-out: concentration giving 50% inhibition
Experimental: The inhibiting activity against HMPPS of a selected compound of formula (I) can, for instance, be tested by monitoring the transfer of the terminal phosphate of adenosine triphosphate ATP-γ-P^32 to `dihydropteridine`. […] Such inhibition may, for instance, be easily and simply carried out by incubating an extract of E. coli with pAB-7-C^14, ATP, Mg and `dihydropteridine`. The formation of the dihydropteroate-C^14 can be quantitatively assayed after separating the unreated pAB substrate, for instance by chromatography. […] Preferably the value is 25 μM or less, such as in the range between […]. Generally a value below 7μM is desirable. […]
phosphate of ATP-γ-P^32 to Pt could be monitored and correlated […]
Tubes 1 to 9 containing the amounts of components shown in the Table, were filled up to 200μl with distilled water, incubated for 60 minutes at 37° C and then chilled on ice. […] The charcoal and the filter were then radioactively counted.
The radioactive count from the contents of tubes 2 and 3 was taken as the maximum count, since these tubes contained no test compound and thus gave 0% enzyme inhibition. The percentage inhibition produced by the contents of the remaining tubes could then be calculated by relating their radioactive count to the maximum, as determined above. […]

[2] = tested on: Cl. perfringens; settings: disclosed in British Pat. No. 1303171 and Application No. 36289/70; cited from earlier work
[3] = tested on: Derm. dermatonomous; settings: disclosed in British Pat. No. 1303171 and Application No. 36289/70; cited from earlier work

Sequence of hydroxymethyldihydropteridine pyrophosphokinase (HMPPS) (P26281 whole entry): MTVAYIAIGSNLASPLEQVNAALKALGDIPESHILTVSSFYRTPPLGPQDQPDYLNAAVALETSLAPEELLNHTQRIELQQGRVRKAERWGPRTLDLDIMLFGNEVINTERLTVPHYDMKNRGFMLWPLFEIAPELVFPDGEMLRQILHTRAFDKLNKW

SMILES	IC50 [1] [µM]	bacteriostatic activity [2]	bacteriostatic activity [3]
CC1(C)Nc2nc(N)nc(O)c2N=C1CBr [2-Amino-4-hydroxy-6-bromomethyl-7,7-dimethyl-7,8-dihydropteridine hydrobromide]	5	–	–
CC1(C)Nc2nc(N)nc(O)c2N=C1CO [2-amino-4-hydroxy-6-hydroxymethyl-7,7-dimethyl-7,8-dihydropteridine]	–	particularly effective	particularly effective
CC1=Nc2c(O)nc(N)nc2NC1(C)C [2-amino-4-hydroxy-6-methyl-7,7-dimethyl-7,8-dihydropteridine]	–	particularly effective	particularly effective
CC1(C)Nc2nc(N)nc(O)c2N=C1C(Br)Br [the 6-dibromomethyl analogue, 2-Amino-4-hydroxy-6-dibromomethyl-7,7-dimethyl-7,8-dihydropteridine hydrobromide]	25	–	–
